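GI50 is the concentration that inhibits growth by half. The concentration for full growth arrest is given as TGI.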
Assays:
Assay in all cases: growth of human tumour cells (NCI), 384-well format
786-0 renal = system: 786-0 renal
A498 renal = system: A498 renal
A549 NSCLC = system: A549 NSCLC
ACHN renal = system: ACHN renal
BT-549 breast = system: BT-549 breast
CAKI-1 renal = system: CAKI-1 renal
CCRF-CEM leukemia = system: CCRF-CEM leukemia
COLO 205 colon = system: COLO 205 colon
DU-145 prostate = system: DU-145 prostate
EKVX NSCLC = system: EKVX NSCLC
HCC-2998 colon = system: HCC-2998 colon
HCT-116 colon = system: HCT-116 colon
HCT-15 colon = system: HCT-15 colon
HL-60(TB) leukemia = system: HL-60(TB) leukemia
HOP-62 NSCLC = system: HOP-62 NSCLC
HOP-92 NSCLC = system: HOP-92 NSCLC
HS 578T breast = system: HS 578T breast
HT29 colon = system: HT29 colon
IGROV1 ovarian = system: IGROV1 ovarian
K-562 leukemia = system: K-562 leukemia
KM12 colon = system: KM12 colon
LOX IMVI melanoma = system: LOX IMVI melanoma
M14 melanoma = system: M14 melanoma
MALME-3M melanoma = system: MALME-3M melanoma
MCF7 breast = system: MCF7 breast
MDA-MB-231 breast = system: MDA-MB-231 breast
MDA-MB-435 melanoma = system: MDA-MB-435 melanoma
MDA-MB-468 breast = system: MDA-MB-468 breast
MOLT-4 leukemia = system: MOLT-4 leukemia
NCI-H226 lung = system: NCI-H226 lung
NCI-H23 lung = system: NCI-H23 lung
NCI-H322M lung = system: NCI-H322M lung
NCI-H460 NSCLC = system: NCI-H460 NSCLC
NCI-H522 lung = system: NCI-H522 lung
NCI/ADR-RES ovarian = system: NCI/ADR-RES ovarian
OVCAR-3 ovarian = system: OVCAR-3 ovarian
OVCAR-4 ovarian = system: OVCAR-4 ovarian
OVCAR-8 ovarian = system: OVCAR-8 ovarian
PC-3 prostate = system: PC-3 prostate
RPMI-8226 leukemia = system: RPMI-8226 leukemia
RXF 393 renal = system: RXF 393 renal
SF-268 CNS = system: SF-268 CNS
SF-295 CNS = system: SF-295 CNS
SF-539 CNS = system: SF-539 CNS
SK-MEL-28 melanoma = system: SK-MEL-28 melanoma
SK-MEL-5 melanoma = system: SK-MEL-5 melanoma
SK-OV-3 ovarian = system: SK-OV-3 ovarian
SN12C renal = system: SN12C renal
SNB-19 CNS = system: SNB-19 CNS
SNB-75 CNS = system: SNB-75 CNS
SR leukemia = system: SR leukemia
SW-620 colon = system: SW-620 colon
T-47D breast = system: T-47D breast
TK-10 renal = system: TK-10 renal
U251 glioblastoma = system: U251 glioblastoma
UACC-257 melanoma = system: UACC-257 melanoma
UACC-62 melanoma = system: UACC-62 melanoma
UO-31 renal = system: UO-31 renal

SMILES: Nc1ncccc1-c1nc2ccc(-c3ccccc3)nc2n1-c1ccc(C2(N)CCC2)cc1
- GI50 ([…]-0 renal): 1040 nM
- TGI (786-0 renal): 2220 nM
- GI50 (A498 renal): 234 nM
- TGI (A498 renal): 1310 nM
- GI50 (A549 NSCLC): 1760 nM
- TGI (A549 NSCLC): 4170 nM
- GI50 (ACHN renal): 1720 nM
- TGI (ACHN renal): 4040 nM
- GI50 (BT-549 breast): 1050 nM
- TGI (BT-549 breast): 2250 nM
- GI50 (CAKI-1 renal): 1050 nM
- TGI (CAKI-1 renal): 2270 nM
- GI50 (CCRF-CEM leukemia): 285 nM
- TGI (CCRF-CEM leukemia): 1760 nM
- GI50 (COLO 205 colon): 1030 nM
- TGI (COLO 205 colon): 2210 nM
- GI50 (DU-145 prostate): 2420 nM
- TGI (DU-145 prostate): 8300 nM
- GI50 (EKVX NSCLC): 1640 nM
- TGI (EKVX NSCLC): 5080 nM
- GI50 (HCC-2998 colon): 1350 nM
- TGI (HCC-2998 colon): 2640 nM
- GI50 (HCT-116 colon): 1500 nM
- TGI (HCT-116 colon): 2830 nM
- GI50 (HCT-15 colon): 1240 nM
- TGI (HCT-15 colon): 2490 nM
- GI50 (HL-60(TB) leukemia): 1820 nM
- TGI (HL-60(TB) leukemia): 3210 nM
- GI50 (HOP-62 NSCLC): 1610 nM
- TGI (HOP-62 NSCLC): 3020 nM
- GI50 (HOP-92 NSCLC): 1400 nM
- TGI (HOP-92 NSCLC): 3120 nM
- GI50 (HS 578T breast): 1030 nM
- TGI (HS 578T breast): 2200 nM
- GI50 (HT29 colon): 1100 nM
- TGI (HT29 colon): 2340 nM
- GI50 (IGROV1 ovarian): 187 nM
- TGI (IGROV1 ovarian): 1810 nM
- GI50 (K-562 leukemia): 1600 nM
- TGI (K-562 leukemia): 2950 nM
- GI50 (KM12 colon): 1540 nM
- TGI (KM12 colon): 3270 nM
- GI50 (LOX IMVI melanoma): 1740 nM
- TGI (LOX IMVI melanoma): 3110 nM
- GI50 (M14 melanoma): 1370 nM
- TGI (M14 melanoma): 2660 nM
- GI50 (MALME-3M melanoma): 464 nM
- TGI (MALME-3M melanoma): 1910 nM
- GI50 (MCF7 breast): 96.3 nM
- TGI (MCF7 breast): 1540 nM
- GI50 (MDA-MB-231 breast): 1430 nM
- TGI (MDA-MB-231 breast): 2790 nM
- GI50 (MDA-MB-435 melanoma): 1750 nM
- TGI (MDA-MB-435 melanoma): 3130 nM
- GI50 (MDA-MB-468 breast): 226 nM
- TGI (MDA-MB-468 breast): 1420 nM
- GI50 (MOLT-4 leukemia): 154 nM
- TGI (MOLT-4 leukemia): 1210 nM
- GI50 (NCI-H226 lung): 1420 nM
- TGI (NCI-H226 lung): 3340 nM
- GI50 (NCI-H23 lung): 2400 nM
- TGI (NCI-H23 lung): 8070 nM
- GI50 (NCI-H322M lung): 1380 nM
- TGI (NCI-H322M lung): 2960 nM
- GI50 (NCI-H460 NSCLC): 359 nM
- TGI (NCI-H460 NSCLC): 1820 nM
- GI50 (NCI-H522 lung): 1560 nM
- TGI (NCI-H522 lung): 2900 nM
- GI50 (NCI/ADR-RES ovarian): 1950 nM
- TGI (NCI/ADR-RES ovarian): 4120 nM
- GI50 (OVCAR-3 ovarian): 476 nM
- TGI (OVCAR-3 ovarian): 2050 nM
- GI50 (OVCAR-4 ovarian): 3620 nM
- TGI (OVCAR-4 ovarian): 12100 nM
- GI50 (OVCAR-8 ovarian): 1430 nM
- TGI (OVCAR-8 ovarian): 2750 nM
- GI50 (PC-3 prostate): 139 nM
- TGI (PC-3 prostate): 1630 nM
- GI50 (RPMI-8226 leukemia): 1420 nM
- TGI (RPMI-8226 leukemia): 2720 nM
- GI50 (RXF 393 renal): 582 nM
- TGI (RXF 393 renal): 1910 nM
- GI50 (SF-268 CNS): 1590 nM
- TGI (SF-268 CNS): 2960 nM
- GI50 (SF-295 CNS): 1050 nM
- TGI (SF-295 CNS): 2230 nM
- GI50 (SF-539 CNS): 1160 nM
- TGI (SF-539 CNS): 2380 nM
- GI50 (SK-MEL-28 melanoma): 1220 nM
- TGI (SK-MEL-28 melanoma): 2460 nM
- GI50 (SK-MEL-5 melanoma): 1450 nM
- TGI (SK-MEL-5 melanoma): 2770 nM
- GI50 (SK-OV-3 ovarian): 547 nM
- TGI (SK-OV-3 ovarian): 2190 nM
- GI50 (SN12C renal): 2390 nM
- TGI (SN12C renal): 14400 nM
- GI50 (SNB-19 CNS): 1760 nM
- TGI (SNB-19 CNS): 3170 nM
- GI50 (SNB-75 CNS): 597 nM
- TGI (SNB-75 CNS): 2020 nM
- GI50 (SR leukemia): 96.6 nM
- TGI (SR leukemia): 1260 nM
- GI50 (SW-620 colon): 1790 nM
- TGI (SW-620 colon): 3180 nM
- GI50 (T-47D breast): 35.5 nM
- TGI (T-47D breast): 1040 nM
- GI50 (TK-10 renal): 1240 nM
- TGI (TK-10 renal): 2600 nM
- GI50 (U251 glioblastoma): 1460 nM
- TGI (U251 glioblastoma): 2770 nM
- GI50 (UACC-257 melanoma): 1460 nM
- TGI (UACC-257 melanoma): 2770 nM
- GI50 (UACC-62 melanoma): 1160 nM
- TGI (UACC-62 melanoma): 2390 nM
- GI50 (UO-31 renal): 1320 nM
- TGI (UO-31 renal): 2600 nM

Source: PubChem BioAssay (NCI)
